Experimental data taken from patent US11919933B2, “Use of MYOG gene as target in preparation of drug for treating cardiomyocyte apoptosis-associated cardiovascular disease” (GUANGDONG BEATING ORIGIN REGENERATIVE MEDICINE CO., LTD., priority 2020, dated 2024).
Counter-ions that a name gives are not always drawn.

Key:
Assay type in all cases: cell-based, human
[1] = test system: MYOG expression in hiPSC-MYOG cells; assay: qPCR detection of MYOG mRNA expression levels after Dox induction; details: Dox 2 μg/mL
Procedure: 2.1 Induction: The expression of MYOG was induced by adding Dox (Sigma, D9891) at a final concentration of 2 μg/mL to STEMUP, and DMSO was used as a control. In the control group, only DMSO (denoted as C1) was added to STEMUP. In the experimental group, both DOX and DMSO were added to STEMUP, where DOX was first added to DMSO, and then a resulting mixture (denoted as C2) was added to STEMUP. A final concentration of DOX in STEMUP was 2 μg/mL, and the C1 and C2 were added at a same amount. 2.2 Total RNA extraction: The UN1Q-10 column Trizol total RNA extraction kit (Sangon Biotech, B511321-0100) was used to extract total RNA of the cells (a sample was treated with deoxyribonuclease I (DNase I, Sangon Biotech, B618252) for 30 min in advance). 2.3 Reverse transcription: RNA was reverse-transcribed with the reverse transcription kit iScript Reverse Transcription Supermix (Bio-Rad, 1708841). 2.4 qPCR detection of MYOG mRNA expression levels: According to the instructions of SsoAdvanced™ Universal SYBR® Green Supermix (Bio-Rad, 1725271), the PikoReal Real-Time PCR system (Thermo Fisher) was used to design primers with […] as an internal reference, and then MYOG expression levels in hiPSC and hiPSC-MYOG (Dox-induced group and DMSO control group) were detected. Sequences of the primers were as follows: […]

[2] = test system: hiPSC-CMs; assay: TUNEL apoptosis test of angiotensin II-treated hiPSC-CMs; details: angiotensin II 100 μM and 1 mM, 10 d
Procedure: (§1) 2.1 Induction of hiPSC-CM apoptosis with angiotensin II: Purified hiPSC-CMs were cultivated in a cardiomyocyte medium (MedChemExpress, HY-13948) with angiotensin II at different concentrations (1 nM, 10 nM, 100 nM, 1 μM, 10 μM, 100 μM, and 1 mM), and the angiotensin II-containing medium was changed every 2 days.
2.2.3 TUNEL test: The TdT in situ apoptosis detection kit (R&D Systems, 4812-30-K) was used to detect the apoptosis of cardiomyocytes treated with angiotensin II (1 nM, 1 μM, 100 μM, and 1 mM) and untreated with angiotensin II on day 10. Cardiomyocytes were digested, then added on a glass slide, and stained according to the kit instructions, and nuclei were labeled with DAPI.

[3] = test system: hiPSC-CMs; assay: PrestoBlue cell viability assay of angiotensin II-treated hiPSC-CMs; details: angiotensin II 100 μM and 1 mM, long-term treatment (6 d and 10 d)
Procedure: as §1
2.2.1 A cardiomyocyte viability was detected with the PrestoBlue cell viability assay reagent (Invitrogen, A13261) at 24 h, 48 h, 6 d, and 10 d, and results are shown in FIG. 3.

[4] = test system: hiPSC-CMs; assay: Annexin V apoptosis assay (flow cytometry) of angiotensin II-treated hiPSC-CMs; details: angiotensin II 100 μM and 1 mM, 10 d
Procedure: as §1
2.2.2 The apoptosis of cardiomyocytes treated with angiotensin II (100 μM and 1 mM) and untreated with angiotensin II on day 10 was detected with the apoptosis assay kit Annexin V, Alexa Fluor™488 conjugate (Invitrogen, V13201). Cardiomyocytes were labeled with the apoptosis marker Annexin V and then assayed with a FACSAria™ II flow cytometer (BD).

[5] = test system: hiPSC-MYOG-CMs; assay: TUNEL apoptosis test of hiPSC-MYOG-CMs (Ang II / Dox groups); details: angiotensin II 1 mM, 6 d
Procedure: 5.1 Induction of hiPSC-MYOG-CM apoptosis with angiotensin II: Purified hiPSC-MYOG-CMs were divided into 4 groups (Ang II(+)&Dox(+), Ang II(+)&Dox(−), Ang II(−)&Dox(+), and Ang II(−)&Dox(−)) and then treated for 6 d with a Dox having a concentration of 2 μg/mL and an angiotensin II having a concentration of 1 mM.
5.3 Apoptosis assay: TUNEL test: The TdT in situ apoptosis detection kit (R&D Systems, 4812-30-K) was used to detect the apoptosis of cardiomyocytes in the 4 groups (Ang II(+)&Dox(+), Ang II(+)&Dox(−), Ang II(−)&Dox(+), and Ang II(−)&Dox(−)). Cardiomyocytes were digested, then added on a glass slide, and stained according to the kit instructions. Nuclei were labeled with DAPI.

C[C@H]1c2cccc(O)c2C(=O)C2=C(O)[C@]3(O)C(=O)C(C(N)=O)=C(O)[C@@H](N(C)C)[C@@H]3[C@@H](O)[C@@H]21 [Dox, doxycycline hydrochloride]
expression level of MYOG in the Dox-induced group versus the DMSO control group [1]: more than 100 times

angiotensin II (DRVYIHPF; Angiotensin-2; UniProt P01019 25-32, looked up) [common inducer for establishing cardiomyocyte apoptosis models]
proportion of apoptotic cells (TUNEL) [2]: increased significantly
cell viability [3]: decreased significantly
proportion of apoptotic cells (Annexin V) [4]: increased significantly
apoptotic cell proportion relative to the control group [5]: 2.01 times
